Our source for the IC50 values is ChEMBL document CHEMBL1126059 (J Med Chem, 1992).

The target of assay [1] is T1, Substance-P receptor (Cavia porcellus, UniProt P30547). In words: Displacement of specific binding of [3H]SP to tachykinin receptor 1 from the isolated guinea pig tracheal strips.
Assay [2] addresses T1, Substance-P receptor. In words: In vitro inhibitory concentration that gave 50% displacement of specific binding of [3H]SP to Tachykinin receptor 1 from the isolated guinea pig tracheal strips; No inhibition at 10E-4 M.

Where a SMILES comes first, the peptide text is derived from it. [ ]: non-standard residue; d: D form. The star is where a group is joined. Boc = CC(C)(C)OC(=O)*; OBn = c1ccc(CO*)cc1; For = O=C*

For orientation: IC50 means the concentration at which inhibition is half-maximal. Low values mean inhibition by little substance, high ones a need for much substance.

T1 sequence (P30547 whole entry): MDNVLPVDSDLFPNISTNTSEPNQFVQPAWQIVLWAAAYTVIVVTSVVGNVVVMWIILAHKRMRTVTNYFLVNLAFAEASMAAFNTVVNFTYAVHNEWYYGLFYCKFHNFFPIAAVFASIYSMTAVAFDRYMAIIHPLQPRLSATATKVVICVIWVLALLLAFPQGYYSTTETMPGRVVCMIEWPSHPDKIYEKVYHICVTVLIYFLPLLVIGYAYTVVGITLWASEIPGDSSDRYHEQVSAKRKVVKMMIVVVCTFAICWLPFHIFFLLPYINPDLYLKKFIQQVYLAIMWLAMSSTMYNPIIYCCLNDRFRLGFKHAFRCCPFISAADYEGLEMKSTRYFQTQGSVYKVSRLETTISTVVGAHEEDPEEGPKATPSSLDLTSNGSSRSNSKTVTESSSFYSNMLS

In assay [1], `NC(=O)CC[C@H](N)C(=O)N[C@H](Cc1cn(C=O)c2ccccc12)C(=O)N[C@@H](Cc1ccccc1)C(=O)OCc1ccccc1` registered a half-maximal inhibitory concentration (IC50) of 210 nM.
The same measure, in the same setting: the result for `CC(C)(C)OC(=O)N[C@H](Cc1c[nH]c2ccccc12)C(=O)N[C@H](Cc1c[nH]c2ccccc12)C(=O)N[C@@H](Cc1ccccc1)C(=O)OCc1ccccc1` reads greater than 100000 nM; that for `CC(C)(C)OC(=O)N[C@@H](CCC(N)=O)C(=O)N[C@H](Cc1cn(C=O)c2ccccc12)C(=O)N1Cc2ccccc2CC1C(=O)OCc1ccccc1` (stereo not given in full), 140 nM; that for `CN(C(=O)[C@@H](Cc1cn(C=O)c2ccccc12)NC(=O)[C@H](CCC(N)=O)NC(=O)OC(C)(C)C)[C@@H](Cc1ccccc1)C(=O)OCc1ccccc1`, 240 nM.
The same measure, in the same setting: in the case of `CC(C)(C)OC(=O)N1CCC[C@@H]1C(=O)N[C@@H](CCC(N)=O)C(=O)N[C@@H](CCC(N)=O)C(N)=O` it was greater than 100000 nM; in that of `CC(C)(C)OC(=O)N[C@@H](CCC(N)=O)C(=O)N[C@H](Cc1cn(C=O)c2ccccc12)C(=O)N1C(C(=O)c2ccccc2)CC[C@H]1C(=O)OCc1ccccc1` (stereo not given in full), 450 nM; in that of `CC(C)(C)OC(=O)N[C@@H](CCC(N)=O)C(=O)N[C@H](Cc1c[nH]c2ccccc12)C(=O)N[C@@H](Cc1ccccc1)C(N)=O`, 38700 nM.
Same read-out and setting: the result for `NC(=O)[C@@H](Cc1c[nH]c2ccccc12)NC(=O)[C@H](Cc1ccccc1)NC(=O)[C@@H](Cc1c[nH]c2ccccc12)NC(=O)OCc1ccccc1` reads greater than 100000 nM.
In assay [1], `CC(C)(C)OC(=O)N[C@@H](CCC(N)=O)C(=O)N[C@H](Cc1ccccc1)C(=O)N[C@@H](Cc1ccccc1)C(=O)OCc1ccccc1` registered an IC50 of 380 nM.
The same measure, in the same setting: the result for `CC(C)(C)OC(=O)N[C@@H](CCC(N)=O)C(=O)N[C@H](Cc1cn(C=O)c2ccccc12)C(=O)N[C@@H](Cc1ccccc1)C(=O)OCC1CCCCC1` reads 400 nM; that for `CC(C)(C)OC(=O)N1CCC[C@@H]1C(=O)N[C@@H](CCC(N)=O)C(=O)N[C@@H](CCC(N)=O)C(=O)OCc1ccccc1`, 100000 nM; that for `CC(C)(C)OC(=O)N[C@@H](CCC(N)=O)C(=O)N[C@H](Cc1cn(C=O)c2ccccc12)C(=O)N[C@@H](Cc1ccccc1)C(=O)OCc1ccc(Cl)cc1`, 1000 nM.
Regarding `NC(=O)CC[C@H](NC(=O)[C@H]1CCCN1C(=O)OCc1ccccc1)C(=O)N[C@@H](CCC(N)=O)C(=O)OCc1ccccc1`, the half-maximal inhibitory concentration (IC50) in assay [1] turned out to be 10000 nM.
On the same count and under the same terms, in the case of `CC(C)(C)OC(=O)N[C@@H](CCC(N)=O)C(=O)N[C@H](Cc1cn(C=O)c2ccccc12)C(=O)N[C@@H](Cc1ccc(O)cc1)C(=O)OCc1ccccc1` it was 390 nM.
The same measure, in the same setting: in the case of `O=C1CC[C@@H](C(=O)N[C@H](Cc2c[nH]c3ccccc23)C(=O)N[C@@H](Cc2ccccc2)C(=O)O)N1` it was greater than 100000 nM; in that of `CC(C)(C)OC(=O)N[C@@H](CCC(N)=O)C(=O)N[C@H](Cc1cn(C=O)c2ccccc12)C(=O)N[C@H](Cc1ccccc1)C(=O)OCc1ccccc1`, 770 nM; in that of `CC(C)(C)OC(=O)N[C@@H](CCC(N)=O)C(=O)N[C@H](Cc1cn(C=O)c2ccccc12)C(=O)N[C@@H](Cc1ccccc1)C(=O)O`, greater than 100000 nM.
On the same count and under the same terms, in the case of `CC(C)(C)OC(=O)N[C@@H](Cc1ccc(O)cc1)C(=O)N[C@H](Cc1cn(C=O)c2ccccc12)C(=O)N[C@@H](Cc1ccccc1)C(=O)OCc1ccccc1` it was 260 nM.
In assay [1], `CC(C)(C)OC(=O)NCC(=O)N[C@H](Cc1cn(C=O)c2ccccc12)C(=O)N[C@@H](Cc1ccccc1)C(=O)OCc1ccccc1` showed an IC50 of 420 nM.
As for `NC(=O)CC[C@H](NC(=O)[C@H](CCC(N)=O)NC(=O)[C@H]1CCCN1)C(=O)O`, the half-inhibitory concentration (IC50) in assay [1] was greater than 100000 nM.
Turning to `CC(C)C[C@@H](NC(=O)[C@H](CCC(N)=O)NC(=O)OC(C)(C)C)C(=O)N[C@@H](Cc1ccccc1)C(=O)OCc1ccccc1`, in assay [1], the half-maximal inhibitory concentration (IC50) is 1000 nM.
In assay [1], `NC(=O)CC[C@H](NC(=O)OCc1ccccc1)C(=O)N[C@@H](CCC(N)=O)C(=O)N[C@H](Cc1c[nH]c2ccccc12)C(=O)O` had a 50% inhibitory concentration (IC50) greater than 100000 nM.
As for `CC(C)[C@H](NC(=O)[C@@H](Cc1cn(C=O)c2ccccc12)NC(=O)[C@H](CCC(N)=O)NC(=O)OC(C)(C)C)C(=O)OCc1ccccc1`, the IC50 result in assay [2] is recorded as “Not Active”.
Take `CC(C)(C)OC(=O)N[C@@H](CCC(N)=O)C(=O)N[C@@H](Cc1cn(C=O)c2ccccc12)C(=O)N[C@@H](Cc1ccccc1)C(=O)OCc1ccccc1`: the IC50 in assay [1] came to 360 nM.
Still for that read-out and setting: in the case of `NC(=O)CC[C@H](NC(=O)[C@@H]1CCC(=O)N1)C(=O)N[C@H](Cc1c[nH]c2ccccc12)C(=O)O` it was greater than 100000 nM; in that of `O=C(N[C@H](Cc1c[nH]c2ccccc12)C(=O)N[C@@H](Cc1ccccc1)C(=O)N[C@H](Cc1c[nH]c2ccccc12)C(=O)O)OCc1ccccc1`, 23800 nM.
Same read-out and setting: the result for `O=C(N[C@H](Cc1c[nH]c2ccccc12)C(=O)N[C@@H](Cc1ccccc1)C(=O)N[C@H](Cc1c[nH]c2ccccc12)C(=O)OCc1ccccc1)OCc1ccccc1` reads 10000 nM; that for `CC(C)(C)OC(=O)N[C@@H](CCC(N)=O)C(=O)N[C@H](Cc1c[nH]c2ccccc12)C(=O)N[C@@H](Cc1ccccc1)C(=O)OCc1ccccc1`, 550 nM; that for `CC(C)(C)OC(=O)N[C@@H](CO)C(=O)N[C@H](Cc1cn(C=O)c2ccccc12)C(=O)N[C@@H](Cc1ccccc1)C(=O)OCc1ccccc1` (Boc-Ser-[dW](For)-Phe-OBn), 110 nM.
The same measure, in the same setting: in the case of `CC(C)(C)OC(=O)N[C@@H](CCC(N)=O)C(=O)N[C@H](Cc1cn(C=O)c2ccccc12)C(=O)N[C@@H](Cc1ccccc1)C(=O)OCc1ccccc1` it was 90 nM; in that of `O=C(N[C@@H](Cc1ccccc1)C(=O)N[C@H](Cc1c[nH]c2ccccc12)C(=O)N[C@H](Cc1c[nH]c2ccccc12)C(=O)O)OCc1ccccc1`, greater than 100000 nM.
In the case of `CC(C)(C)OC(=O)N[C@@H](CCC(N)=O)C(=O)N[C@H](Cc1cn(C=O)c2ccccc12)C(=O)N1CCC[C@H]1C(=O)OCc1ccccc1`, the IC50 result in assay [2] is “Not Active”.
`CSCC[C@@H](NC(=O)[C@H](CCC(N)=O)NC(=O)OC(C)(C)C)C(=O)N[C@@H](Cc1ccccc1)C(=O)OCc1ccccc1` returned an IC50 in assay [1] of 790 nM.
Same read-out and setting: in the case of `CC(C)(C)OC(=O)N[C@@H](CCC(N)=O)C(=O)N[C@H](Cc1c[nH]c2ccccc12)C(=O)N[C@@H](Cc1ccccc1)C(=O)O` it was greater than 100000 nM; in that of `CC(C)(C)OC(=O)N[C@@H](CCC(N)=O)C(=O)N[C@@H](Cc1ccccc1)C(=O)N[C@@H](Cc1ccccc1)C(=O)OCc1ccccc1`, 1000 nM; in that of `CC(C)(C)OC(=O)N[C@@H](CCC(N)=O)C(=O)N[C@H](Cc1cn(C=O)c2ccccc12)C(=O)N[C@@H](Cc1ccccc1)C(=O)OCCc1ccccc1`, 500 nM.
The same measure, in the same setting: in the case of `C[C@@H](O)[C@H](NC(=O)OC(C)(C)C)C(=O)N[C@H](Cc1cn(C=O)c2ccccc12)C(=O)N[C@@H](Cc1ccccc1)C(=O)OCc1ccccc1` (Boc-Thr-[dW](For)-Phe-OBn) it was 110 nM.
For `CC(C)(C)OC(=O)N[C@@H](CCC(N)=O)C(=O)N[C@H](Cc1cn(C=O)c2ccccc12)C(=O)NCC(=O)OCc1ccccc1`, in assay [2], the IC50 entry is “Not Active”.
On to `NC(=O)CC[C@H](NC(=O)[C@H](CCC(N)=O)NC(=O)[C@H]1CCCN1)C(=O)N[C@H](Cc1c[nH]c2ccccc12)C(=O)N[C@@H](Cc1ccccc1)C(=O)N[C@H](Cc1c[nH]c2ccccc12)C(=O)N[C@H](Cc1c[nH]c2ccccc12)C(=O)N[C@@H](Cc1ccccc1)C(N)=O`, for which the IC50 in assay [1] was 600 nM.
The same measure, in the same setting: in the case of `O=C(N[C@@H](Cc1ccccc1)C(=O)N[C@H](Cc1c[nH]c2ccccc12)C(=O)N[C@H](Cc1c[nH]c2ccccc12)C(=O)OCc1ccccc1)OCc1ccccc1` it was 100000 nM.
